Data on seven molecules can be found in article PMC9120013, “Ribosome inhibition by C9ORF72-ALS/FTD-associated poly-PR and poly-GR proteins revealed by cryo-EM” (Nature Communications, 2022).

A value given as a limit tells only on which side of the number the result lay.

The test system of one series is translation. The note with it: even at 100 µM; cited from earlier work. From the text: (§1) This work uncovers how the toxic arginine-containing DPR proteins associated with C9ORF72-ALS/FTD inhibit translation. […] Poly-PR and poly-GR binding to large subunits and assembled 80S ribosomes would compete with the binding of initiator Met-tRNA or elongator tRNAs, and strongly interfere with peptidyl transfer, consistent with transl ...

For series [1] the following is noted: even at 100 µM; cited from earlier work.
Excerpt: as §1

In series [2] the test system is ribosomes on endogenous beta-globin mRNA in RRL. Description: Toeprinting of 80S and 4-5-mer polysome fractions on beta-globin mRNA. It is filed as biochemical, rabbit. The note with it: for normalized ratio START to CDS, MEAN: 4-5-mer, primer B, mean of ten 20 bp windows. The procedure: Toeprinting analyses were carried out similarly to those in refs. [51],[74], using 80S and polysome (4–5-some) fractions collected from polysome profiles as described in “Polysome Profiles” except that reactions were doubled in size (200 μL), performed at 37 °C, and were stopped with ice-cold 1xAMV Buffer (50 mM Tris-HCl pH 8.3, 50 mM KCl, 5 mM MgCl2) with 200 μg/ml cycloheximide before being separated on at 10–35% sucrose gradient in 1xAMV buffer with 0.5 mM spermidine and 1 mM DTT. 600 μl of each fraction (80S or 4–5-mer) was supplemented with 10 mM DTT. Then 10 U of AMV reverse transcriptase (Promega), 120 nmol dNTPs, and 120 pmol of a 5'[6-carboxyfluorescein (FAM)]-labeled primer (IDT-DNA) were added. Two primers specific to the endogenous beta-globin mRNA in RRL were used in separate reactions: 5′-(FAM)-GGACTCGAAGAACCTCTG (as in ref. [74]) annealed 136 nucleotides downstream of the AUG or 5′-(FAM)-[…] annealed to the end of the 3'-UTR. Primers were extended at 37 °C for 30 min, and then the reaction were extracted in 1:1 phenol:chloroform, supplemented with 1/10 volume of 3 M sodium acetate pH 5.2, and precipitated with 2.5 volumes of 100% ethanol. Pellets were resuspended in 10 μl of deionized formamide (Applied Biosystems) with 1/20 volume of a 35-500 nucleotide orange-dye labeled DNA size standard (MCLab) and loaded onto a 96-well plate. The samples were sent for fragment analysis by capillary electrophoresis to the UMass Chan Medical School Molecular Biology Core Laboratory using an ABI3730XL DNA Fragment Analyzer with capillaries loaded with POP-7 polymer and with an injection voltage of 12.5 kV. Data collection was performed with GeneMapper software (ABI). Data were exported as.fsa files and were analyzed (aligning to ladder and background correction) in GeneMarker 3.0.1 software (SoftGenetics) running in demo mode. Screen captures of traces were taken and traces were integrated using the “Quantification” feature and manually adjusting sliders to include the desired nucleotide range.

Series [3] has as its system ribosomes on endogenous globin mRNAs in RRL. The series can be described thus: Polysome profiling of RRL translating endogenous mRNA. It counts as biochemical, rabbit. The note with it: 4 μM PR20, 4 μM GR20, 1 mM GDPCP; 5 min. The procedure: Polysome profiles were obtained using RRL untreated with nuclease, so that it contained endogenous mRNA. 100 μl reactions containing 50% RRL (Green Hectare) 30 μM hemin (Sigma), 75 mM KCl, 0.5 mM MgCl2, 1 mM ATP, 0.2 mM GTP, 2.1 mg/ml creatine phosphate, 30 μM of L-amino acid mix, 15 mg/ml yeast tRNA, 6 mM BME and, when appropriate, translation inhibitors (4 μM PR20, 4 μM GR20, cycloheximide, 40 μM harringtonine, or 1 mM GDPCP with 1 mM MgCl2) were assembled on ice. To start translation, the reactions were warmed in a heat block at either 30 °C or 37 °C as noted. After 5 min, reactions were terminated by addition of 100 μl of ice-cold Stop Buffer (50 mM Hepes-KOH pH 7.4, 150 mM KOAc, 10 mM Mg(OAc)2, and 200 μg/ml cycloheximide). The stopped reactions were applied to 10–50% sucrose gradients in Gradient Buffer (50 mM Hepes-KOH pH 7.4, 150 mM KOAc, 10 mM Mg(OAc)2, 2 mM DTT, and 100 μg/ml cycloheximide) and spun in an SW-41 rotor (Beckman Coulter) at 197,568xg (avg) for 2 h at 4 °C. Gradients were pumped on a Gradient Station (BioComp Instruments) at a pump rate of 0.29 mm/min and the absorbance at 254 nm was measured by an Econo UV monitor (Biorad) zeroed with 10% sucrose-gradient buffer. The traces were output as CSV files and imported into GraphPad Prism, where the 80S peaks were aligned. Controls were highly reproducible day-to-day. Each experimental condition is shown compared to concurrent, uninhibited control.

For series [4], the target named is Oryctolagus cuniculus (rabbit) 80S ribosome (rabbit (Oryctolagus cuniculus)) (UniProt G1SVW5).
Series [5] has the same target. This is another data set of the same source.
Series [6] concerns the target Escherichia coli 70S ribosome (E. coli).
Another series relates to E. coli 70S ribosomes. The series can be described thus: Erythromycin competition in the puromycin assay on 70S ribosomes. It is filed as biochemical. The note with it: for fMet-puromycin formed: 20 μM erythromycin and/or 2 μM PR20, 30 nM 70S, quenched at 300 s. The protocol:
The assay was performed as described above for the puromycin kinetics, except that the 70S ribosomes were pre-incubated with 22 μM erythromycin for 5 min prior to adding PR20. The stock solution of erythromycin contained 2 mM erythromycin in ethanol, so the control reaction (70S with no erythromycin) and the reactions with erythromycin were prepared to contain the same amount of ethanol (1%). The final concentrations after addition of puromycin were: 30 nM 70S, 66 nM [^35S]-fMet-tRNA^fMet, 1 μM mRNA, 2 μM PR20 (no PR20 in the control reaction), 20 μM erythromycin (or no erythromycin in a control reaction), 50 µM puromycin (in 20 mM Tris-acetate (pH 7.0), 100 mM NH4OAc, 12 mM Mg(OAc)2 and 1% ethanol). Samples were quenched at 300 s when the uninhibited reaction had reached a plateau.

The test system of series [7] is translation in E. coli cell lysates. The series can be described thus: Nanoluciferase translation in E. coli cell lysate (NEBExpress). It counts as biochemical. The note with it: 1 μl of 200 μM stock in 10-μl reaction. The protocol: E. coli cell lysates (NEBExpress, NEB) were used to investigate bacterial translation inhibition by GR20 and PR20. We monitored the translation of an in vitro transcribed mRNA encoding a Shine-Dalgarno sequence preceding the nanoluciferase (Promega) open reading frame. The mRNA was prepared by in vitro transcription of a PCR-template obtained by amplifying the nanoluciferase open reading frame from the plasmid described in reference with the following primers: T7 + SD-forward: […], based on the pet28a+ plasmid and reverse: […]. […] Then 1 μl of water or different concentrations (10-100 μM) of PR20 or GR20 or 200 μM erythromycin were added and the plate was incubated at 37 °C for 5 min inside of an Infinite m1000 pro microplate reader (Tecan). Next, the nanoluciferase mRNA was added to the final concentration of 20 ng/μl in a 10-μl reaction. Translation reactions were incubated at 37 °C for 20 min, luminescence of the samples was continuously measured by the microplate reader to record the time course of protein synthesis. Time progress curves, obtained in the experiments, were processed in MS Excel, and the rate of change of the relative light units between 100 and 200 s was measured, the mean and SEM of three experiments is reported in column graph in Supplementary Fig. 2a.

Turning to “GRKKRRQRRRPPQ [TAT, arginine-rich polypeptide]”, the translation inhibition entry in the series with translation was “not to cause translation inhibition”. Besides, the cell death entry in series [1] is “not to cause translation inhibition or cell death”.

With “RRRRRRRRRRRR [R12, arginine-rich polypeptide]”, the translation inhibition result with translation was “not to cause translation inhibition”. For the same molecule, in [1], the cell death entry was “not to cause translation inhibition or cell death”.

In the case of `Nc1nc2c(ncn2[C@@H]2O[C@H](COP(=O)(O)OP(=O)(O)CP(=O)(O)O)[C@@H](O)[C@H]2O)c(=O)[nH]1` [GDPCP], the “site of ribosome accumulation, toe-printing of polysome fractions” value in series [2] is given as “accumulate within the open reading frame”. Further, in [2] (80S fraction, primer A, Fig. 2f independent repeat), the “Ratio (START to CDS)” value is 1.314. Further, the “Normalized ratio START/ORF” value in [2] (80S fraction, primer A, Fig. 2f independent repeat, no inhibitor = 1) is listed as 0.4872. Further, the “normalized ratio START to CDS, MEAN” value in [2] (Fig. 2g) is 0.7887; in series [2] (Fig. 2h independent repeat) it was 0.4286. The “polysome profile, half-mer peaks” value in series [3] is reported as “increase in half-mer peaks”.

Turning to “PR20 (poly-proline-arginine, 20 repeats) (peptide)”, in series [4], the IC50 of translation of nanoluciferase mRNA in 33% rabbit reticulocyte lysate is 325 nM and the IC50 of translation of nanoluciferase mRNA in 50% rabbit reticulocyte lysate was determined as 840 nM. In series [5], this molecule registered a concentration at which inhibition of peptidyl transfer to puromycin begins on purified rabbit 80S ribosomes of 100 nM. Besides, in [6], the apparent inhibition constant (Ki) of peptidyl transfer from [35S]-fMet-tRNAfMet to puromycin on E. coli 70S ribosomes is 44 nM.

Consider “PR40 (poly-proline-arginine, 40 repeats) (peptide)”, for which, in series [5], the apparent inhibition constant (Ki) of peptidyl transfer to puromycin on purified rabbit 80S ribosomes is less than 30 nM. Moreover, the apparent inhibition constant (Ki) of peptidyl transfer to puromycin on E. coli 70S ribosomes in series [6] is less than 30 nM.

For the molecule “RRRRNRTRRNRRRVR [FHV, arginine-rich polypeptide]”, the translation inhibition entry with translation is “not to cause translation inhibition”. Also, the cell death result in series [1] is “not to cause translation inhibition or cell death”.

For the molecule `CC[C@H]1OC(=O)[C@H](C)[C@@H](O[C@H]2C[C@@](C)(OC)[C@@H](O)[C@H](C)O2)[C@H](C)[C@@H](O[C@@H]2O[C@H](C)C[C@H](N(C)C)[C@H]2O)[C@](C)(O)C[C@@H](C)C(=O)[C@H](C)[C@@H](O)[C@]1(C)O` [erythromycin], the fMet-puromycin formed with E. coli 70S ribosomes (first column (replicate 1)) is listed as 1468; in the series with E. coli 70S ribosomes (second column (replicate 2)) it was 1479. For the same molecule, in the series on E. coli 70S ribosomes (20 μM erythromycin, 2 μM PR20), the “effect of erythromycin preincubation on inhibition by PR20” value is “prevents the inhibitory action of PR20”. In [7], the “effect on nanoluciferase translation in E. coli cell extracts” value is “Inhibition of nanoluciferase translation”.
